Experimental data published in ChEMBL document CHEMBL3872237, “Nitric oxide-donating derivatives of hederacolchiside A1: Synthesis and biological evaluation in vitro and in vivo as potential anticancer agents” (Bioorg Med Chem Lett, 2017).

Tests used:
[1] = Growth inhibition of human U251 cells after 48 hrs by MTT assay; type: functional, cell-based; conditions: U-251, 48 h
[2] = Growth inhibition of human NCI-H460 cells after 48 hrs by MTT assay; type: functional, cell-based; conditions: NCI-H460, 48 h
[3] = Antitumor activity against mouse H22 cells xenografted in nude Kunming mouse assessed as tumor growth inhibition at 10 mg/kg/day, iv for 14 days measured 24 hrs post last dose relative to control; type: functional; conditions: read-out: TGI
[4] = Haemolytic activity in New Zealand rabbit erythrocytes after 60 mins; type: ADME, cell-based, Oryctolagus cuniculus, Erythrocyte; conditions: read-out: HD50
Mus musculus [5] = experiment: Acute toxicity in mouse assessed as death at >168 mg/kg measured after 14 days; type: organism-based; conditions: in vivo, 336 h
[6] = Induction of NO release in DMSO incubated up to 6 hrs by Griess assay; type: physicochemical
Mus musculus [7] = experiment: Toxicity in nude Kunming mouse xenografted with mouse H22 cells assessed as mouse death at 10 to 20 mg/kg/day, iv for 14 days measured 24 hrs post last dose; type: organism-based; conditions: in vivo
[8] = Solubility of the compound; type: physicochemical
[9] = Antitumor activity against mouse H22 cells xenografted in nude Kunming mouse assessed as tumor growth inhibition at 20 mg/kg/day, iv for 14 days measured 24 hrs post last dose relative to control; type: functional; conditions: read-out: TGI
[10] = Growth inhibition of human SMMC7721 cells after 48 hrs by MTT assay; type: functional, cell-based; conditions: SMMC-7721, 48 h
[11] = Growth inhibition of human HCT116 cells after 48 hrs by MTT assay; type: functional, cell-based; conditions: HCT-116, 48 h
[12] = Antitumor activity against mouse H22 cells xenografted in nude Kunming mouse assessed as tumor growth inhibition at 6 mg/kg/3 days for 5 times administered iv measured 24 hrs post last dose relative to control; type: functional; conditions: read-out: TGI
Mus musculus [13] = experiment: Acute toxicity in mouse assessed as death at <8 mg/kg measured up to 1 hr; type: organism-based; conditions: in vivo
[14] = Antiproliferative activity against human HCT116 cells after 48 hrs by resazurin reduction assay; type: functional, cell-based; conditions: HCT-116, 48 h
[15] = Antiproliferative activity against human NCI-H460 cells after 48 hrs by resazurin reduction assay; type: functional, cell-based; conditions: NCI-H460, 48 h
[16] = Antiproliferative activity against human SMMC7721 cells after 48 hrs by resazurin reduction assay; type: functional, cell-based; conditions: SMMC-7721, 48 h
[17] = Antiproliferative activity against human U251 cells after 48 hrs by resazurin reduction assay; type: functional, cell-based; conditions: U-251, 48 h

| SMILES | IC50 [1] [µM] | IC50 [2] [µM] | inhibition in vivo at 10 mg/kg/day [3] [%] | HC50 at 1 h [4] [µM] | Activity (Mus musculus [5]) | Activity [6] | Activity (Mus musculus [7]) | solubility [8] | inhibition in vivo at 20 mg/kg/day [9] [%] | IC50 [10] [µM] | IC50 [11] [µM] | inhibition in vivo at 6 mg/kg [12] [%] | Activity (Mus musculus [13]) | IC50 [14] [µM] | IC50 [15] [µM] | IC50 [16] [µM] | IC50 [17] [µM] |
| --- | --- | --- | --- | --- | --- | --- | --- | --- | --- | --- | --- | --- | --- | --- | --- | --- | --- |
| C[C@@H]1O[C@@H](O[C@H]2[C@H](O[C@H]3CC[C@]4(C)[C@H]5CC=C6[C@@H]7CC(C)(C)CC[C@]7(C(=O)OCCCOc7no[n+]([O-])c7S(=O)(=O)c7ccccc7)CC[C@@]6(C)[C@]5(C)CC[C@H]4C3(C)C)OC[C@H](O[C@@H]3O[C@H](CO)[C@@H](O)[C@H](O)[C@H]3O)[C@@H]2O)[C@H](O)[C@H](O)[C@H]1O | 1.6 | 3.1 | 38.3 | 280 | Non-Toxic | Active | Non-Toxic | Insoluble | 51.5 | 1.9 | 6.5 | – | – | – | – | – | – |
| CC(CCOc1no[n+]([O-])c1S(=O)(=O)c1ccccc1)OC(=O)[C@]12CCC(C)(C)C[C@H]1C1=CC[C@@H]3[C@@]4(C)CC[C@H](O[C@@H]5OC[C@H](O[C@@H]6O[C@H](CO)[C@@H](O)[C@H](O)[C@H]6O)[C@H](O)[C@H]5O[C@@H]5O[C@@H](C)[C@H](O)[C@@H](O)[C@H]5O)C(C)(C)[C@@H]4CC[C@@]3(C)[C@]1(C)CC2 (some centres not stated) | 2.3 | 6.2 | – | – | – | – | – | – | – | 3.7 | 11.2 | – | – | – | – | – | – |
| C[C@@H]1O[C@@H](O[C@H]2C(O[C@H]3CC[C@]4(C)[C@H]5CC=C6[C@@H]7CC(C)(C)CC[C@]7(C(=O)OC/C=C/COc7no[n+]([O-])c7S(=O)(=O)c7ccccc7)CC[C@@]6(C)[C@]5(C)CC[C@H]4C3(C)C)OC[C@H](O[C@@H]3O[C@H](CO)[C@@H](O)[C@H](O)[C@H]3O)[C@@H]2O)[C@H](O)[C@H](O)[C@H]1O (single isomer, unassigned) | 3.1 | 6.8 | – | – | – | – | – | – | – | 4.5 | 10.1 | – | – | – | – | – | – |
| C[C@@H]1O[C@@H](O[C@H]2C(O[C@H]3CC[C@]4(C)[C@H]5CC=C6[C@@H]7CC(C)(C)CC[C@]7(C(=O)OCCCCOc7no[n+]([O-])c7S(=O)(=O)c7ccccc7)CC[C@@]6(C)[C@]5(C)CC[C@H]4C3(C)C)OC[C@H](O[C@@H]3O[C@H](CO)[C@@H](O)[C@H](O)[C@H]3O)[C@@H]2O)[C@H](O)[C@H](O)[C@H]1O (single isomer, unassigned) | 2.1 | 3.4 | – | – | – | Active | – | – | – | 2.6 | 7.3 | – | – | – | – | – | – |
| C[C@@H]1O[C@@H](O[C@H]2C(O[C@H]3CC[C@]4(C)[C@H]5CC=C6[C@@H]7CC(C)(C)CC[C@]7(C(=O)O)CC[C@@]6(C)[C@]5(C)CC[C@H]4C3(C)C)OC[C@H](O[C@@H]3O[C@H](CO)[C@@H](O)[C@H](O)[C@H]3O)[C@@H]2O)[C@H](O)[C@H](O)[C@H]1O (single isomer, unassigned) [HEDERACOLCHISIDE A1] | 2.2 | 3.7 | – | 6.7 | – | – | – | Insoluble | – | 2.8 | 8.4 | 47.5 | Toxic | 2.2 to 8.4 | 2.2 to 8.4 | 2.2 to 8.4 | 2.2 to 8.4 |
| O=[N+]([O-])OCC(CO[N+](=O)[O-])O[N+](=O)[O-] [NITROGLYCERIN] | – | – | – | – | – | Active | – | – | – | – | – | – | – | – | – | – | – |
